Patent publication US20230159436A1, “APPLICATIONS OF AMIDE ANALOGS OF TRITERPENES IN CURES OF CANCER AND OTHER DISEASES” (Pacific Arrow Limited, priority 2021, published 2023)

Key:
[1] = Pharmacokinetic (PK) study: blood from cutting tail; format: in vivo, mice; conditions: IP 100 mg/kg, estimated
Method: Pharmacokinetic (PK) Study: Blood from Cutting Tail • Method: • Drug-Treatment: • Mice: CD-1 female mice (6-7 weeks, 23-25 g) • mice were injected (IP) with Test drug sample (10 mg/ml, in […] at a dose of 100 mg/kg. • Blood was obtained from a mouse by cut-tail at 0.5, 2 and 4 hours after drug treatments. • At 24 hours after the drug treatment, mice were anesthetized with isoflurane and blood was obtained with cardiac puncture. Animals were then euthanized by cervical dislocation. • Plasma Isolation: • Blood (50-100 ul) was centrifuged (2000 g, 15 minutes). Plasma was collected from the top layer. • 1 volume of plasma was mixed with 3 volume of acetonitrile/0.005% TFA. Mixture was stored in refrigerator overnight. • Sample was centrifuged (16000 g,10 minutes). Supernatant (called Plasma in 75% AN/TFA soluble fractions) was collected and subjected to HPLC analysis. • HPLC Analysis Conditions: • Column: C18 μBondapak • Solvent: 60% acetonitrile/0.005% TFA (Trifluoroacetic acid) • Gradient: isocratic • Flow rate and run time: 1 ml/min for 30 minutes • Detection wavelength: 207 nm • O.D. range: 0.05 full scale • Calculation: • Standard cures of Test Drug is constructed (Area/3000K=1 ug Test Drug) • Area of Test Drug Peak from Sample is Recorded • Amount of Test Drug was calculated according to standard cures.

[2] = Pharmacokinetic (PK) study: blood from cardiac puncture; format: in vivo, mice; conditions: IP 100 mg/kg, estimated
Method: Pharmacokinetic (PK) Study: Blood from Cardiac Puncture • Method: • Drug-Treatment: • Mice: CD-1 female mice (8-10 weeks, 25-30 g) • mice were injected (IP) with Test Drug (10 mg/ml, in 10% DMSO-20% Tween-80 in PBS) at a dose of 100 mg/kg. • At 1 and 2 hours after drug treatments, individual animals were anesthetized with isoflurane. • blood was obtained by cardiac puncture (between the chest-ribs bones). Animals were then euthanized by cervical dislocation. • Plasma Isolation: • Blood (0.6-0.8 ml) was centrifuged (2000 g, 15 minutes). Plasma was collected from the top layer. • 1 volume of plasma was mixed with 3 volume of acetonitrile/0.005% TFA. Mixture was stored in −20° C. for 6 minutes. • Sample was centrifuged (16000 g, 10 minutes). Supernatant was subjected to HPLC analysis. • HPLC Analysis Conditions: • Column: C18 μBondapak • Solvent: 60% acetonitrile/0.005% TFA (Trifluoroacetic acid) • Gradient: isocratic • Flow rate and run time: 1 ml/min for 30 minutes • Detection wavelength: 207 nm • O.D. range: 0.05 full scale • Calculation: • Standard cures of Test Drug is constructed (Area/3000K=1 ug Test Drug) • Area of Test Drug peak from Sample is Recorded • Amount of Test Drug was calculated according to standard cures.

[3] = tested on: SK-Mel-5; test: MTT assay, skin (SK-Mel-5); format: cell-based
Method: (§1) Cells. HTB-9 (bladder), HeLa-S3 (cervix), DU145 (prostate), H460 (lung), MCF-7 (breast), K562 (leukemia), HCT116 (colon), HepG2 (liver), U2OS (bone), T98G (brain), SK-MEL-5 (Skin) and OVCAR 3, ES2 (ovary), Pancreas (Capan), Mouth (KB), Kidney (A498).
(§2) MTT Assay. The procedure for MTT assay followed the method described by Carmichael et al. (1987) with modifications. The cells were seeded into a 96-well plate at for 24 hours before drug-treatment. The cells were then exposed to the drugs for 48, 72, or 96 hours. After the drug-treatment, MTT (0.5 mg/mL) was added to cultures and incubated for an hour. The formazan (product of the reduction of tetrazolium by viable cells) formed and was dissolved with DMSO and the O.D. at 490 nm, and was measured by an ELISA reader. The MTT level of the cells before drug-treatment was also measured (T0). The % cell-growth (% G) is calculated as: % G=(TD−T0/TC−T0)×100(1), where TC or TD represents O.D. readings of control or drug-treated cells.
(§3) When T0>TD, then the cytotoxicity (LC) expressed as % of the control is calculated as: % LC=(TD−T0/T0)×100(2).

[4] = tested on: Swiss3T3 cells; test: Cytotoxicity determination in Swiss3T3 normal fibroblast; format: cell-based; conditions: mouse normal fibroblast; preliminary results
Method: as §2

[5] = tested on: A498; test: MTT assay, kidney (A498); format: cell-based
Method: as §1, §2, §3

[6] = tested on: U2OS; test: MTT assay, bone (U2OS); format: cell-based
Method: as §1, §2, §3

[7] = tested on: MCF-7; test: MTT assay, breast (MCF-7); format: cell-based
Method: as §1, §2, §3

[8] = tested on: HeLa; test: MTT assay, cervix (HeLa); format: cell-based
Method: as §1, §2, §3

[9] = tested on: HTB-9; test: MTT assay, bladder (HTB-9); format: cell-based
Method: as §1, §2, §3

[10] = tested on: KB cells; test: MTT assay, mouth (KB); format: cell-based
Method: as §1, §2, §3

[11] = tested on: DU145; test: MTT assay, prostate (DU145); format: cell-based
Method: as §1, §2, §3

[12] = tested on: HepG2; test: MTT assay, liver (HepG2); format: cell-based
Method: as §1, §2, §3

[13] = tested on: K562 cells; test: Inhibition of leukemia K562 cells growth (cell count); format: cell-based, human
Method: Method: • 1. Cells: Human leukemia cells K562 in RPMI1640 medium. • 2. Drug: Tig-S (1000× stock solution in DMSO). • 3. Start cells concentration: 50×10K per ml (500000/ml). • 4. Cells were cultured with or without drug for total of four days. • 5. Cell number is doubled after 2 days of incubation. Fresh medium (equal volume, with or without drug) was then added to culture. • 6. Cells were counted every day.

| half-life [1] | half-life [2] | IC50 of skin (SK-Mel-5) [3] | IC50 of bone (U2OS) [6] | IC50 of breast (MCF-7) [7] | IC50 of cervix (HeLa) [8] | IC50 of mouth (KB) [10] | IC50 of prostate (DU145) [11] | IC50 of liver (HepG2) [12] | Structure (SMILES) | IC50 in SW3T3 cells [4] | IC50 of kidney (A498) [5] | IC50 of bladder (HTB-9) [9] | No grow (IC100) ([13]; beginning on day 2) | IC50, inhibition of Leukemia K562 cells growth ([13]; cell count, up to four days) |
| --- | --- | --- | --- | --- | --- | --- | --- | --- | --- | --- | --- | --- | --- | --- |
| about one | about one | 5.1 µg/mL | 4.5 µg/mL | 4.5 µg/mL | 5 µg/mL | 3 µg/mL | 3.6 µg/mL | 6 µg/mL | CC=C(C)C(=O)OCC1(C)C(O)CCC2(C)C1CCC1(C)C2CC=C2C3CC(C)(C)C(O)C(O)C3(COC(=O)C(C)=CC)C(O)CC21C (stereo not drawn) [Tig-R, 24,28-O-Tigloyl-3β,16α,21β,22α,24β,28-hexahydroxyolean-12-ene] | above 20 ug/ml | 3.5 µg/mL | 2.5 µg/mL | – | – |
| – | – | – | – | – | – | – | – | – | CC=C(C)C(=O)OCC1(C)C(O)CCC2(C)C1CCC1(C)C2CC=C2C3CC(C)(C)C(OC(=O)C(C)=CC)C(O)C3(CO)C(O)CC21C (centres unmarked) [Tig-S] | – | – | – | ≥ 2.5 µg/mL | about 0.6 ug/ml |
